The text below walks through data of patent US12240840B2, “Amide-substituted heterocyclic compounds for the treatment of conditions related to the modulation of IL-12, IL-23 and/or IFN-alpha” (BRISTOL-MYERS SQUIBB COMPANY, priority 2018, dated 2025).

Usually IC50 stands for the concentration that gives 50% inhibition.

The first assay deals with IFNα-induced pSTAT5 (pY694) in CD3 positive cells of human whole blood. Put plainly: IFNα-Induced STAT Phosphorylation in Human Whole Blood. The format is cell-based. Particulars: 1 h compound incubation, 1000 U/mL recombinant human IFNα A/D for 15 min, pSTAT5 in CD3 positive population, read-out: Human WB IFNα-Induced Stat Phosph. (IC50). The essentials:
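Read-out is median fluorescence intensity of pSTAT5 (pY694) in the CD3-positive gate, by flow cytometry after fix/lyse and permeabilization. Before that, whole human blood anticoagulated with EDTA or ACD-A received compound for an hour and 1000 U/mL IFNα A/D for 15 min.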
With `[2H]C([2H])([2H])NC(=O)c1nnc(NC(=O)C2CC2)cc1Nc1cccc(-c2cnn(CCNC(C)=O)c2)c1OC` [Example 563, 4-((3-(1-(2-acetamidoethyl)-1H-pyrazol-4-yl)-2-methoxyphenyl)amino)-6-(cyclopropanecarboxamido)-N-(methyl-d3)pyridazine-3-carboxamide], the 50% inhibitory concentration (IC50) turned out to be 3120 nM.

The assay is the same for the next values; noted with them: Homo sapiens, 1 h compound incubation, 1000 U/mL recombinant human IFNα A/D for 15 min, pSTAT5 in CD3 positive population, read-out: Human WB IFNα-Induced Stat Phosph. (IC50).
As to `[2H]C([2H])([2H])NC(=O)c1nnc(Nc2cc(C(C)(C)O)ccn2)cc1Nc1cc(F)cc(-c2cc(C(C)(C)O)n(C)n2)c1OC` [Example 547], the IC50 worked out at 400 nM.

Take `[2H]C([2H])([2H])NC(=O)c1nnc(NC(=O)C2CC2)cc1Nc1cc(F)cc(-c2cc(C(=O)N3CCN(C(C)C)CC3)n(C)n2)c1OC` [Example 518]: the 50% inhibitory concentration (IC50) worked out at 150 nM.

In the case of `[2H]C([2H])([2H])NC(=O)c1nnc(NC(=O)C2CC2)cc1Nc1cccc(-c2noc(C(=O)N3CCOCC3)n2)c1OC` [Example 16], the IC50 was 560 nM.

In the case of `[2H]C([2H])([2H])NC(=O)c1nnc(NC(=O)C2CC2)cc1Nc1cccc(-c2ncc(CN)s2)c1OC` [Example 260], the IC50 came to 540 nM.

Take `[2H]C([2H])([2H])NC(=O)c1nnc(NC(=O)C2CC2)cc1Nc1cccc(-c2ncc(CNC(C)=O)s2)c1OC` [Example 261]: the IC50 came out at 680 nM.

For the molecule `[2H]C([2H])([2H])NC(=O)c1nnc(NC(=O)C2CC2)cc1Nc1cccc(-c2nc(CN3CCN(C(=O)COC)CC3)no2)c1OC` [Example 127], the IC50 came to 260 nM.

As to `[2H]C([2H])([2H])NC(=O)c1nnc(NC(=O)C2CC2)cc1Nc1cccc(-c2ncc(CNC(=O)CC)s2)c1OC` [Example 262], the IC50 amounted to 2690 nM.

As for `[2H]C([2H])([2H])NC(=O)c1nnc(NC(=O)C2CC2)cc1Nc1cccc(-c2cc(C(=O)N3CCNCC3)n(C)n2)c1OC` [Example 492], the IC50 stood at 150 nM.

On to `[2H]C([2H])([2H])NC(=O)c1nnc(NC(=O)C2CC2)cc1Nc1cccc(-c2ncc(CC(=O)N(C)C)o2)c1OC` [Example 410, 6-(cyclopropanecarboxamido)-4-((3-(5-(2-(dimethylamino)-2-oxoethyl)oxazol-2-yl)-2-methoxyphenyl)amino)-N-(methyl-d3)pyridazine-3-carboxamide], for which the IC50 came to 260 nM.

Take `[2H]C([2H])([2H])NC(=O)c1nnc(NC(=O)C2CC2)cc1Nc1cccc(-c2nc(C)c(C(=O)N3CCS(=O)(=O)CC3)s2)c1OC` [Example 372]: the 50% inhibitory concentration (IC50) is 150 nM.

Turning to `[2H]C([2H])([2H])NC(=O)c1nnc(NC(=O)C2CC2)cc1Nc1cccc(-c2nc(C)c(C(=O)N3CCC(N4CCN(CCO)CC4)CC3)s2)c1OC` [Example 359], the IC50 worked out at 340 nM.

On to `[2H]C([2H])([2H])NC(=O)c1nnc(NC(=O)C2CC2)cc1Nc1cccc(-c2ncc(C(=O)N3[C@@H]4CC[C@H]3CC(N(C)C)C4)s2)c1OC` (stereo partly drawn) [Example 344], for which the 50% inhibitory concentration (IC50) was determined as 30 nM.

With `[2H]C([2H])([2H])NC(=O)c1nnc(NC(=O)C2CC2)cc1Nc1cccc(-c2noc(C(=O)NCCC3CCCN3C)n2)c1OC` (stereo not drawn) [Example 21], the IC50 amounted to 22 nM.

With `[2H]C([2H])([2H])NC(=O)c1nnc(NC(=O)C2CC2)cc1Nc1cccc(-c2nc([C@H](C)N)no2)c1OC` [Example 181], the IC50 is 630 nM.

With `[2H]C([2H])([2H])NC(=O)c1nnc(NC(=O)C2CC2)cc1Nc1cccc(-c2ncc(C(=O)N3CCS(=O)(=O)CC3)s2)c1OC` [Example 273], the half-maximal inhibitory concentration (IC50) was 70 nM.

With `[2H]C([2H])([2H])NC(=O)c1nnc(NC(=O)C2CC2)cc1Nc1cccc(-c2ncc(C(=O)N3CCC(N(CC)CC)CC3)s2)c1OC` [Example 343], the IC50 is 22 nM.

On to `[2H]C([2H])([2H])NC(=O)c1nnc(NC(=O)C2CC2)cc1Nc1cccc(-c2nc(CNC(=O)CN(C)C)no2)c1OC` [Example 147], for which the IC50 stood at 1720 nM.

In the case of `[2H]C([2H])([2H])NC(=O)c1nnc(NC(=O)C2CC2)cc1Nc1cccc(-c2nc([C@H](CO)NC(=O)COC)no2)c1OC` [Example 202], the IC50 was 1800 nM.

For `COc1c(Nc2cc(NC(=O)C3CC3)nnc2C(N)=O)cccc1-c1noc([C@H]2CCCN2S(C)(=O)=O)n1` [Example 53], the IC50 was 210 nM.

For `[2H]C([2H])([2H])NC(=O)c1nnc(NC(=O)C2CC2)cc1Nc1cccc(-c2cc(C(=O)N3CCN(CCO)CC3)n(C)n2)c1OC` [Example 476], the IC50 is 60 nM.

For the molecule `[2H]C([2H])([2H])NC(=O)c1nnc(NC(=O)C2CC2)cc1Nc1cccc(-c2nc(C)c(C(=O)N3CCOCC3)s2)c1OC` [Example 356], the 50% inhibitory concentration (IC50) was determined as 80 nM.

With `[2H]C([2H])([2H])NC(=O)c1nnc(NC(=O)C2CC2)cc1Nc1cccc(-c2ncc(CC(=O)NCC(O)CO)s2)c1OC` (stereo not drawn) [Example 248], the IC50 worked out at 2240 nM.

With `[2H]C([2H])([2H])NC(=O)c1nnc(NC(=O)C2CC2)cc1Nc1cccc(-c2nc(CNC(=O)CC#N)no2)c1OC` [Example 148], the IC50 turned out to be 1820 nM.

As to `[2H]C([2H])([2H])NC(=O)c1nnc(NC(=O)C2CC2)cc1Nc1cccc(-c2nc(CN3CC4CN(S(C)(=O)=O)CC4C3)no2)c1OC` (stereo not drawn) [Example 235], the IC50 turned out to be 50 nM.

Turning to `[2H]C([2H])([2H])NC(=O)c1nnc(Nc2cnn(C)n2)cc1Nc1cccc(-c2ncc(C(C)O)s2)c1OC` (stereo not drawn) [Example 385], the half-inhibitory concentration (IC50) came out at 180 nM.

Take `[2H]C([2H])([2H])NC(=O)c1nnc(NC(=O)C2CC2)cc1Nc1cccc(-c2ncc(C(=O)NCC3CCN(C)C3)s2)c1OC` (stereo not drawn) [Example 326]: the IC50 was 30 nM.

In the case of `[2H]C([2H])([2H])NC(=O)c1nnc(NC(=O)C2CC2)cc1Nc1cccc(-c2ncc(C(=O)NCC(C)N3CCCCC3)s2)c1OC` (stereo not drawn) [Example 349], the IC50 was found to be 70 nM.

`[2H]C([2H])([2H])NC(=O)c1cnc(NC(=O)C2CC2)cc1Nc1cccc(-c2nc(C3(N)CC3)no2)c1OC` [Example 212]: the IC50 worked out at 320 nM.

With `[2H]C([2H])([2H])NC(=O)c1nnc(NC(=O)C2CC2)cc1Nc1cccc(-c2cc(C(=O)NCCCN(C)C)n(C)n2)c1OC` [Example 537], the IC50 amounted to 700 nM.

For the molecule `[2H]C([2H])([2H])NC(=O)c1cnc(NC(=O)C2CC2)cc1Nc1cccc(-c2cnn(CCN)n2)c1OC` [Example 442], the IC50 amounted to 80 nM.

As for `[2H]C([2H])([2H])NC(=O)c1nnc(NC(=O)C2CC2)cc1Nc1cccc(-c2ncc(C(=O)N3CC(CO)C3)s2)c1OC` [Example 345], the IC50 came out at 180 nM.

For the molecule `COc1c(Nc2cc(NC(=O)C3CC3)ncc2C(N)=O)cccc1-c1cnn(CCNC(=O)OC(C)(C)C)n1` [Example 444], the IC50 came out at 2130 nM.

With `[2H]C([2H])([2H])NC(=O)c1nnc(NC(=O)C2CC2)cc1Nc1cccc(-c2ncc(C(=O)NC3CCC(O)CC3)s2)c1OC` (stereo not drawn) [Example 306], the IC50 was determined as 440 nM.

As to `[2H]C([2H])([2H])NC(=O)c1nnc(NC(=O)C2CC2)cc1Nc1cccc(-c2ncc(C(=O)NC[C@H]3CCCN3CC)s2)c1OC` [Example 330], the IC50 turned out to be 70 nM.

With `[2H]C([2H])([2H])NC(=O)c1cnc(NC(=O)C2CC2)cc1Nc1cccc(-c2nc(C(C)(C)O)no2)c1OC` [Example 218], the half-inhibitory concentration (IC50) was determined as 390 nM.

For `[2H]C([2H])([2H])NC(=O)c1nnc(NC(=O)C2CC2)cc1Nc1cccc(-c2nc(C(=O)N(C)C)cs2)c1OC` [Example 276], the IC50 was 690 nM.

With `[2H]C([2H])([2H])NC(=O)c1nnc(NC(=O)C2CC2)cc1Nc1cc(F)cc(-c2cc(C(=O)N3CCC(c4ccccc4)CC3)n(C)n2)c1OC` [Example 511], the half-inhibitory concentration (IC50) came to 320 nM.

Take `[2H]C([2H])([2H])NC(=O)c1nnc(NC(=O)C2CC2)cc1Nc1cccc(-c2noc(C(CCC)C(=O)N3CCOCC3)n2)c1OC` (stereo not drawn) [Example 42]: the IC50 was 230 nM.

Take `[2H]C([2H])([2H])NC(=O)c1nnc(NC(=O)C2CC2)cc1Nc1cc(F)cc(-c2cc(C(=O)N3C[C@@H](C)O[C@@H](C)C3)n(C)n2)c1OC` [Example 499]: the IC50 turned out to be 180 nM.

As to `[2H]C([2H])([2H])NC(=O)c1nnc(NC(=O)C2CC2)cc1Nc1cccc(-c2ncc(CNC(=O)OC)s2)c1OC` [Example 266], the 50% inhibitory concentration (IC50) came out at 2530 nM.

With `[2H]C([2H])([2H])NC(=O)c1nnc(NC(=O)C2CC2)cc1Nc1cccc(-c2ccn(CC(=O)NCCOC)n2)c1OC` [Example 471], the IC50 turned out to be 1590 nM.

For `[2H]C([2H])([2H])NC(=O)c1nnc(NC(=O)C2CC2)cc1Nc1cccc(-c2noc(CN3CCN(S(C)(=O)=O)CC3)n2)c1OC` [Example 15], the IC50 was determined as 30 nM.

As to `[2H]C([2H])([2H])NC(=O)c1nnc(NC(=O)C2CC2)cc1Nc1cc(F)cc(-c2cc(C(=O)N3CCC(CCO)CC3)n(C)n2)c1OC` [Example 509], the IC50 stood at 170 nM.

As for `[2H]C([2H])([2H])NC(=O)c1nnc(NC(=O)C2CC2)cc1Nc1cccc(-c2cc(C(=O)N3CCOCC3)n(C)n2)c1OC` [Example 459], the IC50 is 80 nM.

Consider `COc1c(Nc2cc(NC(=O)C3CC3)nnc2C(N)=O)cccc1-c1noc([C@@H](C)NS(C)(=O)=O)n1` [Example 47], for which the IC50 came out at 140 nM.

In the case of `[2H]C([2H])([2H])NC(=O)c1nnc(NC(=O)C2CC2)cc1Nc1cccc(-c2nc(CN3CCN(C(=O)OC(C)(C)C)CC3=O)no2)c1OC` [Example 137], the IC50 worked out at 2640 nM.

Regarding `[2H]C([2H])([2H])NC(=O)c1nnc(NC(=O)C2CC2)cc1Nc1cccc(-c2nc(CN3CCN(C(C)=O)CC3=O)no2)c1OC` [Example 140], the IC50 was 330 nM.

Consider `[2H]C([2H])([2H])NC(=O)c1nnc(NC(=O)C2CC2)cc1Nc1cc(F)cc(-c2cc(C(=O)N3CCC(N(C)C)CC3)n(C)n2)c1OC` [Example 515], for which the half-inhibitory concentration (IC50) was 290 nM.

With `[2H]C([2H])([2H])NC(=O)c1nnc(NC(=O)C2CC2)cc1Nc1cccc(-c2ncc(C(=O)NCCCN3CCCC3=O)s2)c1OC` [Example 293], the IC50 was 30 nM.

In the case of `[2H]C([2H])([2H])NC(=O)c1nnc(Nc2ccc(OCC)nn2)cc1Nc1cc(F)cc(-c2cc(C(C)(C)O)n(C)n2)c1OC` [Example 545], the IC50 stood at 220 nM.
